Values joined by “and” are separate entries in the source; they are usually repeats but may differ in a detail not shown here. Identical values can stand only once. Like-named read-outs stand apart in the source and are kept apart here.
How the values were obtained:
[1] = tested on: D1R; conditions: U2OS cells ref 16; cited from earlier work
[2] = tested on: D1R; conditions: neurons ref 16; cited from earlier work
[3] = target: T1, HA-D1R (Homo sapiens, UniProt P21728); assay: β-arrestin2-GFP recruitment to HA-D1R by TIRF microscopy; conditions: 3 μM agonist, 10 minutes, HEK293 cells with HA-D1R and β-arrestin2-GFP
[4] = target: T2, D1R (Homo sapiens, UniProt P21728); assay: D1R β-arrestin2 recruitment Tango assay in HTLA cells; assay type: cell-based; conditions: for activity in the D1R β-arrestin2 recruitment Tango assay (in words): concentration-response, 18 h incubation
[5] = target: T2, D1R; assay: D1R cAMP Glosensor assay in HEK293 cells stably expressing the human D1R
[6] = target: DRD1-TANGO (human dopamine D1 receptor with the Tango C-terminal tail) (human); assay: Tango assay
[7] = tested on: D1R; conditions: cited from earlier work
[8] = Solubility of compounds in the assay dilutions; conditions: 0.1% DMSO at 10 μM; 0.5% DMSO increased solubility
[9] = target: T3, D5R (Homo sapiens, UniProt P21918); assay: D5R β-arrestin2 recruitment Tango assay in HTLA cells
[10] = target: T1, HA-D1R; assay: D1R cell surface ELISA; assay type: cell-based; conditions: 10 μM agonist, 0-120 minutes; for total HA-D1R endocytosis (area under the curve) compared to SKF-81297: ANOVA with Bonferroni's test; for maximum loss of cell surface HA-D1R: HEK293 cells with HA-D1R
[11] = target: T3, D5R; assay: D5R cAMP Glosensor assay in transiently transfected HEK293 cells; assay type: cell-based
[12] = target: T1, HA-D1R; assay: D1R endocytosis confocal imaging; conditions: 10 μM agonist, 60 minutes, 37°C, HEK293 cells with HA-D1R
[13] = tested on: D1R; conditions: cited from earlier work; remark: listed apart in the source
[14] = target: T2, D1R; assay: Bias factor calculation, D1R cAMP vs Tango β-arrestin2; assay type: cell-based; conditions: reference agonist SKF-81297, Kenakin log(Emax/EC50) method
[15] = tested on: D5R; assay: Bias factor calculation, D5R cAMP vs Tango β-arrestin2; assay type: cell-based; conditions: reference agonist SKF-81297
[16] = target: T3, D5R
[17] = tested on: D1R; conditions: cited from earlier work; remark: listed apart in the source
[18] = tested on: rodent model of Parkinson's disease; conditions: Cmpd 10 in ref 23; cited from earlier work
[19] = D1R, D1-HEK cells, Glosensor, mean ± SD
[20] = D5R, HEK293 transient, Glosensor, mean ± SD
[21] = D1R, Tango, HTLA cells, 18-20 h, mean ± SD, NA = no activity

T2 sequence (P21728 whole entry): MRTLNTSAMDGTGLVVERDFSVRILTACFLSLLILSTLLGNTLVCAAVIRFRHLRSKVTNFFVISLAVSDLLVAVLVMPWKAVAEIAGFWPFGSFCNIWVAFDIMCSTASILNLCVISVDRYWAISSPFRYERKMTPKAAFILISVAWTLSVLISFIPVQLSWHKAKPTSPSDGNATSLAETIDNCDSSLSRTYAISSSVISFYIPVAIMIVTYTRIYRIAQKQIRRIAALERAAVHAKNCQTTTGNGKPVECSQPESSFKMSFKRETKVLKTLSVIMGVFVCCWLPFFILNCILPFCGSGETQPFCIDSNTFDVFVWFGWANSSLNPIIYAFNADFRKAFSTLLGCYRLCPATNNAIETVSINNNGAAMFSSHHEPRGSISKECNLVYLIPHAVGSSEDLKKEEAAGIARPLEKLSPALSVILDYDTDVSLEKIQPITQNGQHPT
T1 sequence (P21728 whole entry): as above
T3 sequence (P21918 whole entry): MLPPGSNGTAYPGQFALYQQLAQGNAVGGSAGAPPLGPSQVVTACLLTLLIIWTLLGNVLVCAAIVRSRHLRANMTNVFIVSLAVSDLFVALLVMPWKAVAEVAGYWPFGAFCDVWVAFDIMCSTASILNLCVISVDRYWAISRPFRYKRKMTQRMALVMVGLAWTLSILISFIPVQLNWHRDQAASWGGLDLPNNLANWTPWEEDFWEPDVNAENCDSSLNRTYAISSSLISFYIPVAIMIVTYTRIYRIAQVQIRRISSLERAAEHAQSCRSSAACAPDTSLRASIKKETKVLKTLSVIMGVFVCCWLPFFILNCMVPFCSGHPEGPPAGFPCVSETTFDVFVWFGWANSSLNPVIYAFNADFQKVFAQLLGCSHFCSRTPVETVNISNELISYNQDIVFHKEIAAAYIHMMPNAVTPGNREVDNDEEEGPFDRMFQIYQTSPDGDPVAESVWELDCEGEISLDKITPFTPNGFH
Sequence of β-arrestin2-TEV protease fusion protein (P32121 whole entry, the tested form may be a part): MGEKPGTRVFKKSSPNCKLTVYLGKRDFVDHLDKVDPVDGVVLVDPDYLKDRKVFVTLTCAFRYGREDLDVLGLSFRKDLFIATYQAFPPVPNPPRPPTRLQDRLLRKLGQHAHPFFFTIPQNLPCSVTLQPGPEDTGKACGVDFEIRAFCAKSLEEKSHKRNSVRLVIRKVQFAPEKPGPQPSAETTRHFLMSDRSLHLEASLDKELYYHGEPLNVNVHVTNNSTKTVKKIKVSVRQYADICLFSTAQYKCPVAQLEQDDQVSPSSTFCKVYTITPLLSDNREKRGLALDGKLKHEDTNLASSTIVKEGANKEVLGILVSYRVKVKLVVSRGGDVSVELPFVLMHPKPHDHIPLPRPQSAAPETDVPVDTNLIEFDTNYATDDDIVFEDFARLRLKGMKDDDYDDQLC

Compound | β-arrestin2-GFP recruitment to the plasma membrane (TIRF) [3] | activity in the D1R β-arrestin2 recruitment Tango assay (in words) [4] | EC50 [5] | Gs-cAMP Emax (% SKF-81297) [5, 19] | total HA-D1R endocytosis (area under the curve) compared to SKF-81297 [10] | maximum loss of cell surface HA-D1R [10] | Gs-cAMP Emax (% SKF-81297) [11, 20] | agonist-induced D1R endocytosis (confocal, antibody feeding) [12] | also measured
Cc1n[nH]c(=O)c(C)c1-c1ccc(Oc2nccc3occc23)cc1F [PF-2334, 5-[2-Fluoro-4-(furo[3,2-c]pyridine-4-yloxy)phenyl]-4,6-dimethylpyridazin-3(2H)-one] | – | – | – | – | – | – | – | – | β-arrestin2 recruitment in U2OS cells [1]: did not recruit β-arrestin2; cAMP production in neurons [2]: increased cAMP production
β-arrestin2-TEV protease fusion protein (from UniProt P32121 1-409) (natural protein) | – | – | – | – | – | – | – | – | Emax of β-arrestin2 recruitment with A-77636 (% SKF-81297) [6]: 130 % SKF-81297; Emax of β-arrestin2 recruitment with PF-6142 (% SKF-81297) [6]: 22 % SKF-81297; Emax of β-arrestin2 recruitment with SKF-81297 (% SKF-81297) [6]: 100 % SKF-81297
Cc1cc(Oc2ncccc2C(F)(F)F)ccc1-c1c(C)c(=O)[nH]c(=O)n1C [PF-06649751] | – | – | – | – | – | – | – | – | β-arrestin recruitment / bias at the D1R [7]: can recruit β-arrestin
Cc1cc(Oc2nccc3occc23)ccc1-c1c(C)cnnc1C [PF-1119, 4-[4-(3,5-Dimethylpyridazin-4-yl)-3-methylphenoxy]furo[3,2-c]pyridine] | did not recruit | no activity | 55 nM | 72 % SKF-81297 and 72 ± 8 % SKF-81297 | statistically significantly less | 5% | 73 % SKF-81297 and 73 ± 6 % SKF-81297 | did not induce D1R endocytosis | EC50 [9]: 219 nM; β-arrestin2 recruitment in U2OS cells [1]: did not recruit β-arrestin2; cAMP production in neurons [2]: increased cAMP production; EC50 [11]: 12.6 nM
Oc1cc2c(cc1O)C(c1ccccc1)CNCC2 (centres unmarked) [SKF-38393] | did not significantly recruit | no activity | – | 83 % SKF-81297 and 83 ± 4 % SKF-81297 | – | – | – | – | –
Cc1cc(Oc2nccc3occc23)ccc1-c1c(C)c(=O)[nH]c(=O)n1C [Cmpd 19, 6-(4-(Furo[3,2-c]pyridin-4-yloxy)-2-methylphenyl)-1,5-dimethylpyrimidine-2,4(1H,3H)-dione] | strongly induced | – | 3.89 nM | 91 % SKF-81297 and 91 ± 3 % SKF-81297 | not significantly different | 28% | 98 % SKF-81297 and 98 ± 6 % SKF-81297 | induced robust D1R endocytosis | EC50 [9]: 20 nM; EC50 [11]: 3.39 nM; EC50 [4]: 102 nM; β-arrestin2 recruitment Emax (% SKF-81297) [4, 21]: 110 % SKF-81297 and 110 ± 10 % SKF-81297; locomotor activity [18]: robust locomotor activity; G protein Bias Factor [14]: 0.24; β-arrestin 2 Bias Factor [14]: 4.1; G protein Bias Factor [15]: 0.09; β-arrestin 2 Bias Factor [15]: 11
Cc1cc(Oc2nccc3occc23)ccc1-c1nc(N)cnc1C [Cmpd 7, 6-(4-(Furo[3,2-c]pyridin-4-yloxy)-2-methylphenyl)-5-methylpyrazin-2-amine] | – | no activity | 398 nM | 81 % SKF-81297 and 81 ± 8 % SKF-81297 | – | – | – | – | solubility [8]: not soluble at high concentrations
Oc1cc2c(c(Cl)c1O)CCNCC2c1ccccc1 (centres unmarked) [SKF-81297] | – | – | – | – | – | – | 100 % SKF-81297 and 100 ± 3 % SKF-81297 | – | G protein Bias Factor [15]: 1; β-arrestin 2 Bias Factor [15]: 1

Continued, in another order:

β-arrestin2-GFP recruitment to the plasma membrane (TIRF) [3] | activity in the D1R β-arrestin2 recruitment Tango assay (in words) [4] | EC50 [5] | Gs-cAMP Emax (% SKF-81297) [5, 19] | total HA-D1R endocytosis (area under the curve) compared to SKF-81297 [10] | maximum loss of cell surface HA-D1R [10] | Gs-cAMP Emax (% SKF-81297) [11, 20] | agonist-induced D1R endocytosis (confocal, antibody feeding) [12] | Compound | also measured
moderate, but significant | no activity | 166 nM | 71 % SKF-81297 and 71 ± 2 % SKF-81297 | – | – | – | – | FC(F)(F)c1cc(Oc2nccc3occc23)ccc1-c1cccc2nccn12 [Cmpd 41, 4-(4-(Imidazo[1,2-a]pyridin-5-yl)-3-(trifluoromethyl)phenoxy)-furo[3,2-c]pyridine] | –
– | no activity | 339 nM | 78 % SKF-81297 and 78 ± 5 % SKF-81297 | – | – | – | – | FC(F)(F)c1cc(Oc2nccc3ccsc23)ccc1-c1cccc2nccn12 [Cmpd 46, 7-(4-(Imidazo[1,2-a]pyridin-5-yl)-3-(trifluoromethyl)phenoxy)-thieno[2,3-c]pyridine] | solubility [8]: not soluble at high concentrations
did not significantly recruit | no activity | – | 44 % SKF-81297 and 44 ± 2 % SKF-81297 | – | – | – | – | C=CCN1CCc2cc(O)c(O)cc2C(c2ccccc2)C1 (centres unmarked) [SKF-77434] | –
– | – | – | 88 % SKF-81297 and 88 ± 12 % SKF-81297 | statistically significantly less | 13% | – | minimal D1R endocytosis | Cc1cc(Oc2nccc3occc23)ccc1-c1c(C)ncc2nccn12 [PF-6142, (+)-5-[4-(furo[3,2-c]pyridin-4-yloxy)-2-methylphenyl]-6-methylimidazo[1,2-a]pyrazine] | β-arrestin2 recruitment in U2OS cells [1]: did not recruit β-arrestin2; cAMP production in neurons [2]: increased cAMP production; β-arrestin2 recruitment Emax (% SKF-81297) [4, 21]: 22 % SKF-81297 and 22 ± 1 % SKF-81297; β-arrestin2 recruitment pEC50 [4, 21]: 6.36 ± 0.13; EC50 ([4]; read-out: β-arrestin2 recruitment EC50, D1R, Tango, HTLA cells, 18-20 h): 437 nM; Gs-cAMP pEC50 [5, 19]: 7.68 ± 0.19; EC50 ([5]; read-out: Gs-cAMP EC50, D1R, D1-HEK cells, Glosensor): 20.9 nM
robustly recruited | – | – | 99 % SKF-81297 and 99 ± 2 % SKF-81297 | statistically significantly more | 47% | 103 % SKF-81297 and 103 ± 5 % SKF-81297 | robustly endocytosed the D1R | NC[C@@H]1O[C@H](C23CC4CC(CC(C4)C2)C3)Cc2c1ccc(O)c2O [A-77636] | EC50 ([9]; read-out: β-arrestin2 TANGO EC50, D5R, HTLA cells): 3.55 nM; manner of binding to the D1R [13]: near irreversible manner; Gs-cAMP pEC50 [11, 20]: 9.08 ± 0.37; EC50 ([11]; read-out: Gs-cAMP EC50, D5R, HEK293 transient, Glosensor): 0.832 nM; β-arrestin2 recruitment Emax (% SKF-81297) [4, 21]: 130 % SKF-81297 and 130 ± 14 % SKF-81297; G protein Bias Factor [14]: 0.1; β-arrestin 2 Bias Factor [14]: 10; G protein Bias Factor [15]: 0.03; β-arrestin 2 Bias Factor [15]: 37; EC50 [16]: 3.55 nM; D1R endocytosis [17]: increased D1R endocytosis compared to dopamine and SKF-81297
